Source: patent US20160122386A1, “V1A RECEPTOR AGONISTS” (FERRING B.V., priority 2014, published 2016)
Starred links: 1 amine or outer side, 2 acyl side, 3 side chain; linkers in the order of their positions; H or OH if unused. Positions of bridges follow the written chain, without caps; N, C: chain ends. Non-standard residues stand in square brackets, D forms with d. Residues, ends and D or L forms follow the SMILES beside them. Chains are numbered I, II in the order given. *: point of attachment. d(isoGln) = NC(=O)[C@@H](CCC(=O)[*:2])N[*:1]; isoGln = NC(=O)[C@H](CCC(=O)[*:2])N[*:1]; d(εLys) = N[C@H](CCCCN[*:1])C(=O)[*:2]; X1 = N[C@@H](CCC(=O)[*:2])C(=O)[*:1]; X4 = N[C@H](CCC(=O)[*:2])C(=O)[*:1]; Aad = N[C@@H](CCCC(=O)O)C(=O)O; Dab = NCC[C@H](N)C(=O)O; PhAc = O=C(Cc1ccccc1)*

Target: T1, human V1aR (Homo sapiens, UniProt P37288)
T1 construct: expressed in transfected cells
T1 sequence (P37288 whole entry): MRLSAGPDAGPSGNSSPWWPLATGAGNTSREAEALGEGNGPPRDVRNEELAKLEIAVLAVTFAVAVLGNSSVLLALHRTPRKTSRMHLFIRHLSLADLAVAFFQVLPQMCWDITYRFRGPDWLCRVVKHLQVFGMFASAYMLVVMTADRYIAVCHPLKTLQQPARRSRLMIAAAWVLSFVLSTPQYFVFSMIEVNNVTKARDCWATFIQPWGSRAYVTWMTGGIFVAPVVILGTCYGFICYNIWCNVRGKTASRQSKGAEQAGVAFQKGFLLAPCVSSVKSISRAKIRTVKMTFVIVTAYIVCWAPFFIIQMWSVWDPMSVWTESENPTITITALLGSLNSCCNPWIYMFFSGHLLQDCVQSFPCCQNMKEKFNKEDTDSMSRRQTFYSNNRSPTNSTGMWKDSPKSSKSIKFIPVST
Experiment: Agonist activity at vasopressin V1a receptors, cell-based FLIPR calcium assay
Settings: for Emax: read-out: Efficacy Avg. (%)
In short: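 HEK Flp-In cells stably expressing human V1aR were loaded with Calcium 4 dye plus 2.5 mM probenecid for 1 h at 37 °C, then given half-log compound concentrations (final 0.1% DMSO) on FLIPR Tetra.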

| Compound | EC50 [nM] | Emax [%] |
| --- | --- | --- |
| CC[C@H](C)[C@@H]1NC(=O)[C@H](Cc2ccccc2)NC(=O)[C@@H](N)CSSC[C@@H](C(=O)N2CCC[C@H]2C(=O)N[C@@H](CCNC(=O)[C@H](N)CCCCNC(=O)CC[C@H](NC(=O)[C@H](CCCNC(=N)N)NC(=O)[C@@H]2CCCN2C(=O)[C@H](C)NC(=O)[C@H](CC(N)=O)NC(=O)[C@H](CCC(N)=O)NC(=O)[C@H](Cc2ccccc2)NC(=O)[C@@H](Cc2ccc(OC)cc2)NC(=O)Cc2ccccc2)C(N)=O)C(=O)NCC(N)=O)NC(=O)[C@H](CC(N)=O)NC(=O)[C@H](CC(N)=O)NC1=O [Compound 60] (I: H-CFINNCP[Dab]G-NH2 / II: PhAc-[dY](Me)FQNAPR[isoGln][d(εLys)]; disulfide I:1-I:6; amide I:8-II:C) | 2.3 | 42 |
| CC[C@H](C)[C@@H]1NC(=O)[C@H](Cc2ccccc2)NC(=O)[C@@H](N)CSSC[C@@H](C(=O)N2CCC[C@H]2C(=O)N[C@@H](CCNC(=O)[C@H](N)CCCCNC(=O)CC[C@H](NC(=O)[C@H](CCCNC(=N)N)NC(=O)[C@@H]2CCCN2C(=O)[C@H](CCC(N)=O)NC(=O)[C@H](CC(N)=O)NC(=O)[C@H](CCC(N)=O)NC(=O)[C@H](Cc2ccccc2)NC(=O)[C@@H](Cc2ccc(OC)cc2)NC(=O)Cc2ccccc2)C(N)=O)C(=O)NCC(N)=O)NC(=O)[C@H](CC(N)=O)NC(=O)[C@H](CCCC(N)=O)NC1=O [Compound 61] (I: H-CFI[Aad](NH2)NCP[Dab]G-NH2 / II: PhAc-[dY](Me)FQNQPR[isoGln][d(εLys)]; disulfide I:1-I:6; amide I:8-II:C) | 2.5 | 38 |
| CC[C@H](C)[C@@H]1NC(=O)[C@H](Cc2ccccc2)NC(=O)[C@@H](N)CSSC[C@@H](C(=O)N2CCC[C@H]2C(=O)N[C@@H](CCNC(=O)[C@H](N)CCCCNC(=O)CC[C@@H](NC(=O)[C@H](CCCNC(=N)N)NC(=O)[C@@H]2CCCN2C(=O)[C@H](C)NC(=O)[C@H](CC(N)=O)NC(=O)[C@H](CCC(N)=O)NC(=O)[C@H](Cc2ccccc2)NC(=O)[C@@H](Cc2ccc(OC)cc2)NC(=O)Cc2ccccc2)C(N)=O)C(=O)NCC(N)=O)NC(=O)[C@H](CC(N)=O)NC(=O)[C@H](CCCC(N)=O)NC1=O [Compound 62] (I: H-CFI[Aad](NH2)NCP[Dab]G-NH2 / II: PhAc-[dY](Me)FQNAPR[d(isoGln)][d(εLys)]; disulfide I:1-I:6; amide I:8-II:C) | 2.5 | 31 |
| CC[C@H](C)[C@@H]1NC(=O)[C@H](Cc2ccccc2)NC(=O)[C@@H](N)CSSC[C@@H](C(=O)N2CCC[C@H]2C(=O)N[C@@H](CCNC(=O)[C@@H](N)CCC(=O)NCCCC[C@H](NC(=O)[C@H](CCCNC(=N)N)NC(=O)[C@@H]2CCCN2C(=O)[C@H](C)NC(=O)[C@H](CC(N)=O)NC(=O)[C@H](CCC(N)=O)NC(=O)[C@H](Cc2ccccc2)NC(=O)[C@@H](Cc2ccc(OC)cc2)NC(=O)Cc2ccccc2)C(N)=O)C(=O)NCC(N)=O)NC(=O)[C@H](CC(N)=O)NC(=O)[C@H](CC(N)=O)NC1=O [Compound 63] (I: H-CFINNCP[Dab]G-NH2 / II: PhAc-[dY](Me)FQNAPRK-NH2; disulfide I:1-I:6; linker I:8-II:8 via X1) | 1.1 | 36 |
| CC[C@H](C)[C@@H]1NC(=O)[C@H](Cc2ccccc2)NC(=O)[C@@H](N)CSSC[C@@H](C(=O)N2CCC[C@H]2C(=O)N[C@@H](CCNC(=O)[C@@H](N)CCC(=O)NCCCC[C@H](NC(=O)[C@H](CCCNC(=N)N)NC(=O)[C@@H]2CCCN2C(=O)[C@H](C)NC(=O)[C@H](CC(N)=O)NC(=O)[C@H](CCC(N)=O)NC(=O)[C@H](Cc2ccccc2)NC(=O)[C@@H](Cc2ccc(OC)cc2)NC(=O)Cc2ccccc2)C(N)=O)C(=O)NCC(N)=O)NC(=O)[C@H](CC(N)=O)NC(=O)[C@H](CCCC(N)=O)NC1=O [Compound 64] (I: H-CFI[Aad](NH2)NCP[Dab]G-NH2 / II: PhAc-[dY](Me)FQNAPRK-NH2; disulfide I:1-I:6; linker I:8-II:8 via X1) | 2.9 | 42 |
| CC[C@H](C)[C@@H]1NC(=O)[C@H](Cc2ccccc2)NC(=O)[C@@H](N)CSSC[C@@H](C(=O)N2CCC[C@H]2C(=O)N[C@@H](CCNC(=O)[C@H](N)CCC(=O)NCCCC[C@H](NC(=O)[C@H](CCCNC(=N)N)NC(=O)[C@@H]2CCCN2C(=O)[C@H](C)NC(=O)[C@H](CC(N)=O)NC(=O)[C@H](CCC(N)=O)NC(=O)[C@H](Cc2ccccc2)NC(=O)[C@@H](Cc2ccc(OC)cc2)NC(=O)Cc2ccccc2)C(N)=O)C(=O)NCC(N)=O)NC(=O)[C@H](CC(N)=O)NC(=O)[C@H](CCCC(N)=O)NC1=O [Compound 65] (I: H-CFI[Aad](NH2)NCP[Dab]G-NH2 / II: PhAc-[dY](Me)FQNAPRK-NH2; disulfide I:1-I:6; linker I:8-II:8 via X4) | 4.5 | 31 |
| CC[C@H](C)[C@@H]1NC(=O)[C@H](Cc2ccccc2)NC(=O)[C@@H](N)CSSC[C@@H](C(=O)N2CCC[C@H]2C(=O)N[C@@H](CCNC(=O)[C@H](N)CCC(=O)NCCCC[C@H](NC(=O)[C@H](CCCNC(=N)N)NC(=O)[C@@H]2CCCN2C(=O)[C@H](C)NC(=O)[C@H](CC(N)=O)NC(=O)[C@H](CCC(N)=O)NC(=O)[C@H](Cc2ccccc2)NC(=O)[C@@H](Cc2ccc(OC)cc2)NC(=O)Cc2ccccc2)C(N)=O)C(=O)NCC(N)=O)NC(=O)[C@H](CC(N)=O)NC(=O)[C@H](CC(N)=O)NC1=O [Compound 66] (I: H-CFINNCP[Dab]G-NH2 / II: PhAc-[dY](Me)FQNAPRK-NH2; disulfide I:1-I:6; linker I:8-II:8 via X4) | 2.3 | 30 |
